Source: patent US20110086875A1, “Powdered Medicament for Nasal Delivery of Ascorbic Acid for Reducing Apomorphine Induced Toxicity to Ciliated Tissue” (BRITANNIA PHARMACEUTICALS LIMITED, priority 2007, published 2011)

Tested on: ciliated tissue taken from the trachea of a chick embryo
Test: Cilia beat frequency (CBF) model
Type: cell-based
Excerpt: By “toxic” herein is meant that the active agent has an adverse effect on the cilia beat frequency of ciliated tissue taken from the trachea of a chick embryo according to the model that is well known in the art (“The Effect of Nasal Drug Formulations on Ciliary Beating in Vitro,” Romeijn, et al.; Int. J. Pharm., 135; 1996: 137-145; “Classification of Cilio-Inhibiting Effects of Nasal Drugs,” Merkus, et al., Laryngoscope, 111(4); April 2001: 595-602). By “ameliorating said toxicity” herein is meant that the adverse effect of the active agent on the cilia beat frequency is lessened as a result of the inclusion in the medicament of ascorbic acid for co-administration with said active agent. […]
The cilia beat frequency (CBF) model is a recognised technique to investigate the relative toxicity of substances applied in solution to a section of ciliated tissue taken from the trachea of a chick embryo (Romeijn, et al., 1996, Merkus, et al., 2001). […] The tissue is then transferred to a well containing 1.0 ml of test solution and the impact on CBF assessed. Further, the reversibility of any effects can be measured by washing the tissue in Locke-Ringer solution 15 minute post administration and evaluating the recovery of CBF.

| effect of adding ascorbic acid on the apomorphine-induced arrest of cilia beat movement (1% wt. ascorbic acid added to 1% apomorphine in MLR solution, single administration, FIG. 1) | SMILES | reversibility of toxic effect on CBF after washing |
| --- | --- | --- |
| – | CN1CCc2cccc3c2[C@H]1Cc1ccc(O)c(O)c1-3 [apomorphine] | irreversible |
| ameliorated significantly | O=C1O[C@H]([C@@H](O)CO)C(O)=C1O [ascorbic acid] | – |
